Where a SMILES comes first, the peptide text is derived from it. The star is where a group is joined. Cbz = O=C(OCc1ccccc1)*
How the values were obtained:
BRD2/3/4 = assay: Western blot and RT-qPCR of BRD2/3/4 in inhibitor-treated LNCaP cells; type: cell-based, human; conditions: 8 hours, Bortezomib 200 nM, MG132 20 μM; for BRD2/3/4 protein level: MLN4924 200 nM
Method: (§1) Cell lysates or immunoprecipitates were subjected to SDS-PAGE, and proteins were transferred to nitrocellulose membranes (GE Healthcare Sciences). The membranes were blocked in Tris-buffered saline (TBS, pH 7.4) containing 5% non-fat milk and 0.1% Tween-20, washed twice in TBS containing 0.1% Tween-20, and incubated with primary antibody overnight at 4° C., followed by secondary antibody for 1 hour at room temperature. The proteins of interest were visualized using ECL chemiluminescence system (Santa Cruz Biotechnology). Densitometry analysis of protein bands was analyzed on the Gel-Pro Analyzer software.
Total RNA was isolated from transiently transfected cells using the Trizol reagent (Thermo Fisher Scientific), and cDNA was reverse-transcribed using the Superscript RT kit (TOYOBO, Japan) according to the manufacturer's instructions. PCR amplification was performed using the SYBR Green PCR master mix Kit (TOYOBO, Japan). All quantization was normalized to the level of endogenous control GAPDH. The primer sequences for the SYBR green qPCR used were as follows: BRD2-F: 5′-[…]-3′ (SEQ ID NO:10); BRD2-R: 5′-[…]-3′ (SEQ ID NO:11); BRD3-F: 5′-[…]-3′ (SEQ ID NO:12); BRD3-R: 5′-[…]-[…]-3′ (SEQ ID NO:13); BRD4-F: 5′-[…]-GAG-3′ (SEQ ID NO:14); BRD4-F: 5′-[…]-3′ (SEQ ID NO:15); RAC1-F: 5′-[…]-3′ (SEQ ID NO:16); RAC1-R: 5′-[…]-3′ (SEQ ID NO:17); FDFT1-F: 5′-ACTAT-[…]-3′ (SEQ ID NO:18); FDFT1-R: 5′-[…]-[…]-3′ (SEQ ID NO:19); DHCR24-F: 5′-[…]-GAGC-3′ (SEQ ID NO:20); DHCR24-R: 5′-[…]-3′ (SEQ ID NO:21); DHCR7-F: 5′-[…]-3′ (SEQ ID NO:22); DHCR7-R: 5′-[…]-3′ (SEQ ID NO:23); MVD-F: 5′-[…]-3′ (SEQ ID NO:24); MVD-R: 5′-CACAC-[…]-3′ (SEQ ID NO:25); PSA-F: 5′-[…]-[…]-3′ (SEQ ID NO:26); PSA-R: 5′-[…]-3′ (SEQ ID NO:27); TMPRSS2-F: 5′-[…]-3′ (SEQ ID NO:28); TMPRSS2-R: 5′-[…]-3′ (SEQ ID NO:29); MYC-F: 5′-[…]-3′ (SEQ ID NO:30); MYC-R: 5′-CTTGT-[…]-3′ (SEQ ID NO:31); AR-F: 5′-[…]-TCACC-3′ (SEQ ID NO:32); AR-R: 5′-[…]-3′ (SEQ ID NO:33); GAPDH-F: 5′-[…]-3′ (SEQ ID NO:34); and GAPDH-R: 5′-[…]-3′ (SEQ ID NO:35).

AKT-mTORC1 pathway = assay: Western blot of AKT and S6K phosphorylation in C4-2 cells; type: cell-based, human; conditions: SPOP-F133V C4-2 cells, GDC-0068 1 μM, 24 hours
Method: as §1

solid tumors = conditions: patients with solid tumors (Saura et al. 2017); cited from earlier work
C4-2 xenograft tumors = assay: Prostate cancer xenografts in mice, tumor volume; type: in vivo; conditions: SPOP-F133V C4-2 xenografts, GDC-0068 100 mg/kg with JQ1 50 mg/kg, 5 days a week, day 21
Method: 6-week-old NOD-SCID IL-2-receptor gamma null (NSG) mice were generated and randomly divided into different experimental groups as indicated. All mice were housed in standard conditions with a 12-hour light/dark cycle and access to food and water ad libitum. For BRD2/3/4 knockdown studies, C4-2 cells (5×10^6), infected with lentivirus expressing empty vector (EV) or HA-SPOP-F133V mutant in combination with control shRNA or BRD2/3/4-specific shRNA, were mixed with Matrigel (in 100 μL 1×PBS plus 100 μL Matrigel (BD Biosciences)) and injected s.c. into the right flank of mice. […] Growth in tumor volume was measured in a blinded fashion using digital caliper, and tumor volumes were estimated using the formula (L×W2)/2, where L is length of tumor and W is width. The volumes of tumors were compared, and P values were determined by a two-tailed Student's t test. Upon the completion of treatment, tumor grafts were harvested. Tumor tissues were divided, and a portion was subjected to FFPE. the rest was frozen for protein and RNA extraction.

C4-2 cells = assay: Cell proliferation assay (MTS) and trypan blue assay, C4-2 cells; type: cell-based, human; conditions: SPOP-F133V C4-2 cells, GDC-0068 0.2 μM with JQ1 0.25 μM, 5 days
Method: CellTiter 96® AQueous One Solution Cell Proliferation Assay (MTS) (Promega) was used to measure cell growth according to the manufacturer's instructions. Briefly, cells were plated in 96-well plates at a density of 2,000 cells per well. At the indicated times, 20 μL of Cell Titer 96R Aqueous One Solution Reagent was added to medium. After incubating for 1 hour at 37° C. in the cell incubator, cell growth was measured in a microplate reader at 490 nm.
Trypan blue assay was performed to measure cell growth according to the manufacturer's instructions. Briefly, cells were plated in 6-well plates at a density of about 5×10^4 to about 1×10^5 cells per well. At the indicated time points, cells were trypsinized and suspended in 1 mL 1×PBS. 100 μL cells and 100 μL trypan blue solution (Sigma-Aldrich) were mixed, and the number of viable cells was measured using the Bio-Rad automated cell counter.

BRD2/3/4 proteins = assay: Western blot of 293T cells transfected with SPOP and BRD2/3/4, with or without MG132; type: cell-based, human; conditions: 20 μM MG132 for 8 hours
Method: as §1

CC(C)C[C@H](NC(=O)[C@H](Cc1ccccc1)NC(=O)c1cnccn1)B(O)O [Bortezomib]
BRD2/3/4 mRNA expression (BRD2/3/4): not mRNA expression
BRD2/3/4 protein level (BRD2/3/4): increased BRD2/3/4 protein

CC(C)NC[C@@H](C(=O)N1CCN(c2ncnc3c2[C@H](C)C[C@H]3O)CC1)c1ccc(Cl)cc1 [GDC-0068]
SPOP mutation-induced activation of AKT downstream pathways (AKT-mTORC1 pathway): abolished
Antitumor efficacy in patients (solid tumors): effective antitumor efficacy
SPOP mutation-conferred resistance to BET inhibitor, tumors in mice (C4-2 xenograft tumors): completely overcame
SPOP mutation-conferred resistance to BET inhibitor, cells in culture (C4-2 cells): completely overcame

CC(C)C[C@@H](C=O)NC(=O)[C@H](CC(C)C)NC(=O)[C@H](CC(C)C)NC(=O)OCc1ccccc1 [MG132] (Cbz-Leu-Leu-Leu-aldehyde)
BRD2/3/4 mRNA expression (BRD2/3/4): not mRNA expression
BRD2/3/4 protein level (BRD2/3/4): increased BRD2/3/4 protein
Effect on the decrease of BRD2/3/4 proteins caused by wild-type SPOP (BRD2/3/4 proteins): completely reversed

NS(=O)(=O)OC[C@@H]1C[C@@H](n2ccc3c(N[C@H]4CCc5ccccc54)ncnc32)C[C@@H]1O [MLN4924]
BRD2/3/4 protein level (BRD2/3/4): caused accumulation of BRD2/3/4 at protein level

— patent US11712439B2, “Methods and materials for identifying and treating bet inhibitor-resistant cancers” (Mayo Foundation for Medical Education and Research, priority 2017, dated 2023)
